Earlier results, collected in PMC6499206, “Quantification of Volatile Metabolites Derived From Garlic (Allium sativum) in Human Urine” (Frontiers in Nutrition, 2019).

Tested on: cardiac hypertrophy
Design: method as in PMID 28194108
Conditions: rats; by increasing Na+/K+-ATPase; cited from earlier work

In the case of `C=CC[S+](C)[O-]` (centres unmarked) [AMSO, allyl methyl sulfoxide], the “effect on cardiac hypertrophy” value is given as “attenuated cardiac hypertrophy”.
In the case of `C=CCSC` [AMS, allyl methyl sulfide], the “effect on cardiac hypertrophy” value is listed as “attenuated cardiac hypertrophy”.
